Test system: trans vivo delayed type hypersensitivity (DTH)
Assay: Trans vivo DTH model (footpad swelling)
Type: in vivo, mouse
Settings: 10 mg/kg; 24 hours after PBMCs and TT
Procedure: FIGS. 8A and 8B show the ability of anti-PAR-2 antibodies Par-B (FIG. 8A) and Par-D (FIG. 8B) to inhibit trans vivo DTH. Shown are the changes in paw thickness after injection of human peripheral blood mononuclear cells alone (PBMC) or after injection of PBMCs and […] (TT). Mice were pretreated (ip at −3 hours) with PBS, hu IgG4 (20 mg/kg), or anti-PAR-2 antibody. Percent inhibition is shown at top of the bars. *p<0.05 as compared to PBS.
The trans vivo delayed type hypersensitivity (DTH) is a validated model of human T cell mediated inflammation in mice (Warnecke, G. et al. (2007) Transplantation 84(3):392-399; Pelletier, R. P. et al. (Mar. 28, 2007, Epub) Hum. Immunol. 68(6):514-522; Carrodeguas, L. et al. (1999) Hum. Immunol. 60(8):640-651). In this assay, human PBMCs from tetanus-sensitized donors are isolated and co-injected with tetanus toxoid (TT) into the mouse footpad. The swelling response that develops in the footpad is measured at 24 hours. This swelling response is dependent on antigen-specific activation of the human T cells as well as on the inflammation mediated by mouse cells.
Shown in FIG. 8A and FIG. 8B, are the changes in footpad thickness 24 hours after injection of PBMCs and TT.

C[C@@H]1C[C@H]2[C@@H]3CCC4=CC(=O)C=C[C@]4(C)[C@@]3(F)[C@@H](O)C[C@]2(C)[C@@]1(O)C(=O)CO [dexamethasone, reference compound]
inhibition of footpad swelling response: approximately 80%
